Structures are written as SMILES. Like-named read-outs stand apart in the source and are kept apart here.

These results are taken from patent US9133183B2, “Imidazolidinones and analogs exhibiting anti-cancer and anti-proliferative activities” (Deciphera Pharmaceuticals, LLC, priority 2013, dated 2015).

One assay concerns M-NFS-60 cells. Nature of the assay: M-NFS-60 cell proliferation assay (resazurin). In kind it is cell-based. The following applies: 67 h incubation. How it is done: M-NFS-60 cells (catalog #CRL-1838) were obtained from the American Type Culture Collection (ATCC, Manassas, Va.). Briefly, cells were grown in suspension in RPMI 1640 medium supplemented with 10% characterized fetal bovine serum (Invitrogen, Carlsbad, Calif.), 0.05 mM 2-mercaptoethanol, and 20 ng/mL mouse recombinant macrophage colony stimulating factor (M-CSF) at 37° C., 5% CO2, and 95% humidity. Cells were allowed to expand until reaching saturation at which point they were subcultured or harvested for assay use.
M-NFS-60 Cell Proliferation Assay
A serial dilution of test compound was dispensed into a 384-well black clear bottom plate (Corning, Corning, N.Y.). Two thousand five hundred cells were added per well in 50 μL complete growth medium. Plates were incubated for 67 h at 37° C., 5% CO2, and 95% humidity. At the end of the incubation period 10 μL of a 440 μM solution of resazurin (Sigma, St. Louis, Mo.) in PBS was added to each well and incubated for an additional 5 h at 37° C., 5% CO2, and 95% humidity. Plates were read on a Synergy2 reader (Biotek, Winooski, Vt.) using an excitation of 540 nm and an emission of 600 nm. IC50 values were calculated from a series of percent inhibition values determined at a range of inhibitor concentrations using software routines as implemented in the GraphPad Prism software package.
On the technique in general: Resazurin is reduced to fluorescent resorufin, in cell work by metabolically active cells.

In assay [1] the target is unphosphorylated c-FMS kinase (uFMS, Seq. ID no. 1) (Homo sapiens (Human), UniProt P07333). Description: uFMS kinase assay (ADP production coupled to pyruvate kinase/lactate dehydrogenase). In kind it is biochemical. The following applies: enzymatic assay, ATP 500 μM. How it is done:
uFMS kinase (Seq. ID No. 1) Assay
In this assay, the oxidation of NADH (thus the decrease at A340 nm) was continuously monitored spectrophometrically. The reaction mixture (100 μL) contained FMS (purchased from Millipore) (10 nM), polyE4Y (1 mg/mL), MgCl2 (10 mM), pyruvate kinase (4 units), lactate dehydrogenase (0.7 units), phosphoenol pyruvate (1 mM), NADH (0.28 mM) and ATP (500 μM) in 90 mM Tris buffer containing 0.2% octyl-glucoside and 1% DMSO, pH 7.5. The inhibition reaction was started by mixing serial diluted test compound with the above reaction mixture. The absorption at 340 nm was monitored continuously for 4 hours at 30° C. on Synergy 2 plate reader. The reaction rate was calculated using the 3 to 4 h time frame. Percent inhibition was obtained by comparison of reaction rate with that of a control (i.e., in the absence of test compound). IC50 values were calculated from a series of percent inhibition values determined at a range of inhibitor concentrations using software routines as implemented in the GraphPad Prism software package.
uFMS Kinase Sequence (Y538-End) Used for Screening (Seq. ID No. 1)

In the next assay the test system is osteoclast precursors. Nature of the assay: Osteoclast tartrate-resistant acid phosphatase assay. In kind it is cell-based. The note with it: Osteoclast, 7-14 days, RANKL and M-CSF. How it is done: Osteoclast Tartrate-Resistant Acid Phosphatase Assay
A serial dilution of test compound was dispensed into a 384-well black clear bottom plate (Nalge Nunc International, Rochester, N.Y.). Compound was diluted by the addition of DMEM media supplemented with 10% characterized fetal bovine serum (Invitrogen, Carlsbad, Calif.). Diluted compound was transferred to a 384-well black clear bottom plate. Two-thousand five hundred osteoclast precursors (Lonza, Walkersville, Md.) were added per well in growth media containing Receptor Activator of Nuclear Factor Kappa-beta ligand (RANKL) and M-CSF (R&D Systems, Minneapolis, Minn.). Plates were incubated for 7-14 days at 37 degrees Celsius, 5% CO2, and 95% humidity to allow differentiation of osteoclast precursors. At the end of the incubation period, 10 μL of supernatant from each well was transferred to a clear 384-well plate. Tartrate-resistant acid phosphatase activity in the supernatant samples was determined using an acid phosphatase assay kit (Sigma, St. Louis, Mo.). Absorbance was measured at 550 nm using a plate reader. Data was analyzed using Prism software (Graphpad, San Diego, Calif.) to calculate IC50 values.

In assay [2] the target is unphosphorylated c-KIT kinase (uKIT, Seq. ID no. 2) (Homo sapiens (Human), UniProt P10721). Description: uKit kinase assay (coupled pyruvate kinase/lactate dehydrogenase). The following applies: enzymatic assay, ATP 2000 μM. In kind it is biochemical. As for the experimental part:
uKit Kinase (Seq. ID No. 2) Assay
Activity of unphosphorylated c-KIT kinase (uKIT, Seq. ID no. 2) was determined by following the production of ADP from the KIT kinase reaction with ATP and poly E4Y as substrates through coupling with the pyruvate kinase/lactate dehydrogenase system (e.g., Schindler et al. Science (2000) 289: 1938-1942). In this assay, the oxidation of NADH (thus the decrease at A340 nm) was continuously monitored spectrophometrically. The reaction mixture (100 μl) contained unphosphorylated KIT (12 nM), polyE4Y (1 mg/mL), MgCl2 (10 mM), pyruvate kinase (4 units), lactate dehydrogenase (0.7 units), phosphoenol pyruvate (1 mM), and NADH (0.28 mM) and ATP (2000 μM) in 90 mM Tris buffer containing 0.2% octyl-glucoside and 1% DMSO, pH 7.5. The inhibition reaction was started by mixing serial diluted test compound with the above reaction mixture. The absorption at 340 nm was monitored continuously for 4 hours at 30° C. on Synergy 2 plate reader (BioTech). Reaction rates around 3 to 4 h time frame were used to calculate % inhibitions, from which IC50 values were generated.
uKit with N-Terminal GST Fusion Used for Screening (Seq ID No. 2)

Chain of unphosphorylated c-FMS kinase (uFMS, Seq. ID no. 1) (P07333 538-972): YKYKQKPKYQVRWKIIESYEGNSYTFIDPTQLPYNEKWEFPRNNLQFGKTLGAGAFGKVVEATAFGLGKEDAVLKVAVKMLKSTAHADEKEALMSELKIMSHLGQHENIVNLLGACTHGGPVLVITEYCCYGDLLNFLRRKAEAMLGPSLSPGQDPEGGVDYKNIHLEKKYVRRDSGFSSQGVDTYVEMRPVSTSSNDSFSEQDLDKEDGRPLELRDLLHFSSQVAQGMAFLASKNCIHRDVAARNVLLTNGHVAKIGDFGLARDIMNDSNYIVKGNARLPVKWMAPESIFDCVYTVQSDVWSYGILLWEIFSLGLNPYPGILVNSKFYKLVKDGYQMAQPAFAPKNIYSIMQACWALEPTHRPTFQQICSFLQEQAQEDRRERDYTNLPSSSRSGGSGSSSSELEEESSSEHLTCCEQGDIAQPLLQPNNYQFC
Chain of unphosphorylated c-KIT kinase (uKIT, Seq. ID no. 2) (P10721 other isoform, or with tags, fused parts or gaps): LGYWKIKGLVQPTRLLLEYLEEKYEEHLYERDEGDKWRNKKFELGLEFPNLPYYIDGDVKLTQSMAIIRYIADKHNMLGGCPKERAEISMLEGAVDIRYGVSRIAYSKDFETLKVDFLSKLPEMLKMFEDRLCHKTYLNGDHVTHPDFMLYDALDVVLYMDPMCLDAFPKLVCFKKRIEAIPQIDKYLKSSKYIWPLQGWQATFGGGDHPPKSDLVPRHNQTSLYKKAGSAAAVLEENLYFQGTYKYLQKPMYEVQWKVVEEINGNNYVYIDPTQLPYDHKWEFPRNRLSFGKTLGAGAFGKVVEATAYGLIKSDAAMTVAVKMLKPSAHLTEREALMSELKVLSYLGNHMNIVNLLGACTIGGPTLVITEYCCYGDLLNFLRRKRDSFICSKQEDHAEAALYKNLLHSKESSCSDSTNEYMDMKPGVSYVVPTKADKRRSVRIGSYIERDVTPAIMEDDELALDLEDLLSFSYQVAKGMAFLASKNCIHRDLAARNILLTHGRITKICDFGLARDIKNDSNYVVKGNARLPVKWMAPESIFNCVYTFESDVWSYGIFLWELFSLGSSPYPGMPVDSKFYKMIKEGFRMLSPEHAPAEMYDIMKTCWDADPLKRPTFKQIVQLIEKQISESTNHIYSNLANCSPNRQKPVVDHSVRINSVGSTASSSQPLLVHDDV

With `[2H]C([2H])([2H])n1cc(-c2cc(Oc3ccc(NC(=O)N4CCN(C5CCOCC5)C4=O)nc3)ccn2)cn1` [Example 6, 2-oxo-3-(tetrahydro-2H-pyran-4-yl)-N-(5-((2-(1-(trideuteromethyl)-1H-pyrazol-4-yl)pyridin-4-yl)oxy)pyridin-2-yl)imidazolidine-1-carboxamide], the IC50 (with M-NFS-60 cells; in assay [1] (read-out: uFMS)) was 10 to 100 nM each time.

Take `Cn1cc(-c2cc(Oc3ccc(NC(=O)N4CCN(C5CCOC(C)(C)C5)C4=O)nc3)ccn2)cn1` (stereo not shown) [Example 13, 3-(2,2-dimethyltetrahydro-2H-pyran-4-yl)-N-(5-((2-(1-methyl-1H-pyrazol-4-yl)pyridin-4-yl)oxy)pyridin-2-yl)-2-oxoimidazolidine-1-carboxamide]: the IC50 in the assay with M-NFS-60 cells was 100 to 1000 nM; in assay [1] (read-out: uFMS), 10 to 100 nM; with osteoclast precursors, 10 to 100 nM.

For `COC1(CCN2CCN(C(=O)Nc3ccc(Oc4ccnc(-c5cnn(C)c5)c4)cn3)C2=O)CC1` [Example 17, 3-(2-(1-methoxycyclopropyl)ethyl)-N-(5-((2-(1-methyl-1H-pyrazol-4-yl)pyridin-4-yl)oxy)pyridin-2-yl)-2-oxoimidazolidine-1-carboxamide], the IC50 (in the assay with M-NFS-60 cells; in assay [1] (uFMS); in the assay on osteoclast precursors) was 10 to 100 nM each time.

Consider `COC[C@H](C)N1CCN(C(=O)Nc2ccc(Oc3ccnc(-c4cnn(C)c4)c3)c(C)n2)C1=O` [Example 38, (S)-3-(1-methoxypropan-2-yl)-N-(6-methyl-5-((2-(1-methyl-1H-pyrazol-4-yl)pyridin-4-yl)oxy)pyridin-2-yl)-2-oxoimidazolidine-1-carboxamide], for which the IC50 in assay [2] is less than 10 nM; in the assay with M-NFS-60 cells, 10 to 100 nM; in assay [1] (uFMS) it was 10 to 100 nM; in the assay on osteoclast precursors, less than 10 nM.

In the case of `CC1CN(C(=O)Nc2ccc(Oc3ccnc(-c4cnn(C)c4)c3)cn2)C(=O)N1C1CCOCC1` (stereo not shown) [Example 40, 4-methyl-N-(5-((2-(1-methyl-1H-pyrazol-4-yl)pyridin-4-yl)oxy)pyridin-2-yl)-2-oxo-3-(tetrahydro-2H-pyran-4-yl)imidazolidine-1-carboxamide], the IC50 in assay [2] is 10 to 100 nM; in the assay with M-NFS-60 cells it was 10 to 100 nM; in assay [1] (read-out: uFMS), less than 10 nM.

As to `COCCN1CCN(C(=O)Nc2ccc(Oc3ccnc(-c4cnc(C)s4)c3)cn2)C1=O` [Example 62, 3-(2-methoxyethyl)-N-(5-((2-(2-methylthiazol-5-yl)pyridin-4-yl)oxy)pyridin-2-yl)-2-oxoimidazolidine-1-carboxamide], the IC50 (in assay [2]; with M-NFS-60 cells; in assay [1] (read-out: uFMS); in the assay on osteoclast precursors) was 100 to 1000 nM each time.

For the compound `CCc1nc(NC(=O)N2CCN(C3CCOCC3)C2=O)ccc1Oc1ccnc(-c2ccc(C)nc2)c1` [Example 63, N-(6-ethyl-5-((6′-methyl-[2,3′-bipyridin]-4-yl)oxy)pyridin-2-yl)-2-oxo-3-(tetrahydro-2H-pyran-4-yl)imidazolidine-1-carboxamide], the IC50 was greater than 1000 nM in assay [2], greater than 1000 nM in the assay with M-NFS-60 cells, 100 to 1000 nM in assay [1] (read-out: uFMS) and greater than 1000 nM with osteoclast precursors.

As to `Cc1c(Oc2ccnc(-c3cnn(C)c3)c2)ccc(NC(=O)N2CCN(C3CCOCC3)C2=O)c1F` [Example 93, N-(2-fluoro-3-methyl-4-((2-(1-methyl-1H-pyrazol-4-yl)pyridin-4-yl)oxy)phenyl)-2-oxo-3-(tetrahydro-2H-pyran-4-yl)imidazolidine-1-carboxamide], the IC50 lay in the range of 100 to 1000 nM with M-NFS-60 cells, 10 to 100 nM in assay [1] (read-out: uFMS) and 10 to 100 nM in the assay on osteoclast precursors.

As for `Cn1cc(-c2cc(Oc3ccc(NC(=O)N4CCN(C5CCOCC5)C4=O)c(F)c3)ccn2)cn1` [Example 95, N-(2-fluoro-4-((2-(1-methyl-1H-pyrazol-4-yl)pyridin-4-yl)oxy)phenyl)-2-oxo-3-(tetrahydro-2H-pyran-4-yl)imidazolidine-1-carboxamide], the IC50 (with M-NFS-60 cells; in assay [1] (read-out: uFMS); with osteoclast precursors) was 10 to 100 nM in each case.

In the case of `COCCN1CCN(C(=O)Nc2cc(F)c(Oc3ccnc(-c4cnn(C)c4)c3)cc2F)C1=O` [Example 98, N-(2,5-difluoro-4-((2-(1-methyl-1H-pyrazol-4-yl)pyridin-4-yl)oxy)phenyl)-3-(2-methoxyethyl)-2-oxoimidazolidine-1-carboxamide], the IC50 in the assay on M-NFS-60 cells lay in the range of 100 to 1000 nM; in assay [1] (read-out: uFMS), 100 to 1000 nM; with osteoclast precursors, 10 to 100 nM.

For `COC1(CCN2CCN(C(=O)Nc3cc(Cl)c(Oc4ccnc(-c5cnn(C)c5)c4)cc3F)C2=O)CC1` [Example 99, N-(5-chloro-2-fluoro-4-((2-(1-methyl-1H-pyrazol-4-yl)pyridin-4-yl)oxy)phenyl)-3-(2-(1-methoxycyclopropyl)ethyl)-2-oxoimidazolidine-1-carboxamide], the IC50 (in the assay on M-NFS-60 cells; in assay [1] (read-out: uFMS); in the assay with osteoclast precursors) was 10 to 100 nM each time.

For the compound `COCCN1CCN(C(=O)Nc2cc(Cl)c(Oc3ccnc(-c4cnn(C)c4)c3)cc2F)C1=O` [Example 100, N-(5-chloro-2-fluoro-4-((2-(1-methyl-1H-pyrazol-4-yl)pyridin-4-yl)oxy)phenyl)-3-(2-methoxyethyl)-2-oxoimidazolidine-1-carboxamide], the values for the IC50 (in the assay with M-NFS-60 cells; in assay [1] (read-out: uFMS); in the assay with osteoclast precursors) were 100 to 1000 nM, 10 to 100 nM and 10 to 100 nM, respectively.

For `Cn1cc(-c2cc(Oc3ccc(NC(=O)N4CCN(C5CCOCC5)C4=O)cc3F)ccn2)cn1` [Example 102, N-(3-fluoro-4-((2-(1-methyl-1H-pyrazol-4-yl)pyridin-4-yl)oxy)phenyl)-2-oxo-3-(tetrahydro-2H-pyran-4-yl)imidazolidine-1-carboxamide], the IC50 is greater than 1000 nM with M-NFS-60 cells, 10 to 100 nM in assay [1] (read-out: uFMS) and 100 to 1000 nM in the assay on osteoclast precursors.

Turning to `Cn1cc(-c2cc(Oc3ccc(NC(=O)N4CCN(C5CCOCC5)C4=O)c(F)c3Cl)ccn2)cn1` [Example 113, N-(3-chloro-2-fluoro-4-((2-(1-methyl-1H-pyrazol-4-yl)pyridin-4-yl)oxy)phenyl)-2-oxo-3-(tetrahydro-2H-pyran-4-yl)imidazolidine-1-carboxamide], the values for the IC50 (in assay [2]; with M-NFS-60 cells; in assay [1] (read-out: uFMS)) were 10 to 100 nM, 100 to 1000 nM and less than 10 nM, respectively.

Regarding `N#CCC(=O)Nc1cc(Oc2cc(F)c(NC(=O)N3CCN(C4CCOCC4)C3=O)cc2Cl)ccn1` [Example 114, N-(5-chloro-4-((2-(2-cyanoacetamido)pyridin-4-yl)oxy)-2-fluorophenyl)-2-oxo-3-(tetrahydro-2H-pyran-4-yl)imidazolidine-1-carboxamide], the IC50 in assay [2] and in assay [1] (read-out: uFMS) was greater than 1000 nM each time.
